Drawing on patent US20240228535A1 (priority 2022, published 2024), this text covers IC50 for eleven compounds.

The structures appear in SMILES notation.

The assay addresses SARS2 coronavirus 3CL protease (Severe acute respiratory syndrome coronavirus 2, UniProt P0DTD1). Description: biochemical. The note with it: 5 nM enzyme, 30 min pre-incubation with compound, 15 μM peptide substrate, 4 h at room temperature; read-out: FRET Potency (nM); IC50 values in the SARS2 3CLPro FRET assay.
For `O=C(Nc1ccc(Cl)cc1C(=O)N[C@@H](C[C@@H]1CCNC1=O)C(=O)C(=O)NC1CC1)OC1CC1` [Example 146, cyclopropyl N-[4-chloro-2-[[(1S)-3-(cyclopropylamino)-2,3-dioxo-1-[[(3S)-2-oxopyrrolidin-3-yl]methyl]propyl]carbamoyl]phenyl]carbamate], the IC50 amounted to 3.9 nM.

For the compound `CC(C)C(=O)Nc1ccc(Cl)cc1C(=O)N[C@@H](C[C@@H]1C[C@@H](C)NC1=O)C(=O)C(=O)NC1CC1` [Example 147, 5-chloro-N-[(1S)-3-(cyclopropylamino)-1-[[(3S,5R)-5-methyl-2-oxo-pyrrolidin-3-yl]methyl]-2,3-dioxo-propyl]-2-(2-methylpropanoylamino) benzamide], the IC50 was determined as 11.6 nM.

With `C[C@@H]1C[C@@H](C[C@H](NC(=O)c2cc(Cl)ccc2NC(=O)N(C)C)C(=O)C(=O)NC2CC2)C(=O)N1` [Example 148, 5-chloro-N-[(1S)-3-(cyclopropylamino)-1-[[(3S,5R)-5-methyl-2-oxo-pyrrolidin-3-yl]methyl]-2,3-dioxo-propyl]-2-(dimethylcarbamoylamino) benzamide], the IC50 came out at 24.7 nM.

Regarding `CNC(=O)C(=O)[C@H](C[C@@H]1C[C@@H](C)NC1=O)NC(=O)c1cc(Cl)ccc1NC(=O)C1CN(C)C1` [Example 149, N-[4-chloro-2-[[(1S)-3-(methylamino)-1-[[(3S,5R)-5-methyl-2-oxo-pyrrolidin-3-yl]methyl]-2,3-dioxo-propyl]carbamoyl]phenyl]-1-methyl-azetidine-3-carboxamide], the IC50 is 10.8 nM.

Consider `O=C(Nc1cc(F)c(F)cc1C(=O)N[C@@H](C[C@@H]1CCNC1=O)C(=O)C(=O)NC1CC1)OC1CC1` [Example 150], for which the IC50 was 17.9 nM.

For `CNC(=O)C(=O)[C@H](C[C@@H]1C[C@@H](C)NC1=O)NC(=O)c1cc(Cl)ccc1NC(=O)OC1CCC1` [Example 151, cyclobutyl N-[4-chloro-2-[[(1S)-3-(methylamino)-1-[[(3S,5R)-5-methyl-2-oxo-pyrrolidin-3-yl]methyl]-2,3-dioxo-propyl]carbamoyl]phenyl] carbamate], the IC50 was found to be 5.1 nM.

In the case of `CNC(=O)C(=O)[C@H](C[C@@H]1C[C@@H](C)NC1=O)NC(=O)c1cc(Cl)ccc1NC(=O)OCC1CC1` [Example 152, cyclopropylmethyl N-[4-chloro-2-[[(1S)-3-(methylamino)-1-[[(3S,5R)-5-methyl-2-oxo-pyrrolidin-3-yl]methyl]-2,3-dioxo-propyl]carbamoyl]phenyl] carbamate], the IC50 worked out at 5 nM.

On to `CNC(=O)C(=O)[C@H](C[C@@H]1C[C@@H](C)NC1=O)NC(=O)c1cc(Cl)ccc1NC(=O)OC(C)(C)C` [Example 153, tert-butyl N-[4-chloro-2-[[(1S)-3-(methylamino)-1-[[(3S,5R)-5-methyl-2-oxo-pyrrolidin-3-yl]methyl]-2,3-dioxo-propyl]carbamoyl]phenyl] carbamate], for which the IC50 came out at 39.8 nM.

As to `CNC(=O)C(=O)[C@H](C[C@@H]1C[C@@H](C)NC1=O)NC(=O)c1cc(Cl)c(F)cc1NC(=O)OC1CC1` [Example 154, cyclopropyl N-[4-chloro-5-fluoro-2-[(1S)-3-(methylamino)-1-[[(3S,5R)-5-methyl-2-oxo-pyrrolidin-3-yl]methyl]-2,3-dioxo-propyl]carbamoyl]phenyl] carbamate], the IC50 was found to be 4.5 nM.

As for `CNC(=O)C(=O)[C@H](C[C@@H]1C[C@@H](C)NC1=O)NC(=O)c1cc(F)c(Cl)cc1NC(=O)OC1CC1` [Example 155, cyclopropyl N-[5-chloro-4-fluoro-2-[[(1S)-3-(methylamino)-1-[[(3S,5R)-5-methyl-2-oxo-pyrrolidin-3-yl]methyl]-2,3-dioxo-propyl]carbamoyl]phenyl] carbamate], the IC50 was determined as 30.4 nM.

`CNC(=O)C(=O)[C@H](C[C@@H]1CCNC1=O)NC(=O)c1cc(Cl)ccc1NC(=O)OC1CC1(F)F` (some centres unmarked) [Example 156]: the IC50 was 14.6 nM.
